{"source": "patent US20190376110A1", "about": "“METHOD TO DETECT BACTERIAL ACTIVITY AND PATHOGENICITY WITH BIODYNAMIC SENTINELS” (Purdue Research Foundation, priority 2018, published 2019)", "key": {"[1]": {"tested_on": "E. coli pellet", "test": "Biodynamic imaging / fluctuation spectroscopy of E. coli bacterial pellet", "assay_type": "cell-based", "method": "(§1) Various bacterial specimens can be prepared in a pellet form. A pellet is a condensed form of bacteria which allows them to be carried and handled more efficiently. Bacteria are grown in LB medium for 4 to 12 hours. When culturing is done, the bacteria density in medium is approximately 10^8 #/mL. To make the pellet, 25 mL of bacteria medium is stored in a centrifuge tube. The medium is centrifuged by 10,000 rpm for 10 minutes (Avanti J-20 XPI). During centrifugation, a pellet is formed at the bottom of a centrifuge tube.\n(§2) There are two different sample plate preparations. A monoplex plate is a plate preparation format to test a rapid response of bacteria in single wells. The time resolution of the spectrum measurement is 2 minutes. A multiplex plate is a mode for measuring slow behavior using a measuring period is 30 minutes. For the multiplex, 16 wells are measured in parallel. A plate is firmly fixed on a translational stage controlled at 37 degrees Celsius or other temperature depending on the cell type and the bacterium. The plate is covered with a semi-permeable membrane which prevents the medium from drying out while permitting air molecule exchange.\nBackscattered light from a specimen forms a speckle field consisting of many speckles with sizes determined by the point-spread-function of the imaging optics, and the speckle is delivered by a 4-f system (L1 and L2, f=15 cm). After the 4-f system, a lens (L3, f=5 cm) conducts Fourier transformation of the speckle and the Fourier image is formed at a Fourier plane on a Fourier-domain pixel array (such as a CCD).\nTo gain a more specific understanding of the effect of the nutrient shock, […] is used in a mode called […]. This breaks down the effects of a perturbation into a range of frequencies that are altered by the perturbation. Fluctuation spectroscopy is used routinely in biodynamic imaging applications for drug assays on cancer tissue. In the context of the bacterial pellets, the perturbation similarly can cause spectral changes whose specific frequencies relate to specific speeds of biological processes involved."}, "[2]": {"tested_on": "Salmonella pellet", "test": "Biodynamic imaging / fluctuation spectroscopy of Salmonella bacterial pellet", "assay_type": "cell-based", "settings": "short-time response within 30 minutes of dose", "method": "as §1, §2\n(§3) Backscattered light from a specimen forms a speckle field consisting of many speckles with sizes determined by the point-spread-function of the imaging optics, and the speckle is delivered by a 4-f system (L1 and L2, f=15 cm). […]"}, "[3]": {"tested_on": "Listeria pellet", "settings": "short-time response within 30 minutes of dose", "method": "as §1, §2, §3"}, "[4]": {"tested_on": "Listeria monocytogenes infection of DLD-1 sentinel", "test": "Tissue sentinel antibiotic assay, DLD-1 spheroids infected by Listeria", "assay_type": "cell-based", "method": "As one example of an infection assay, a DLD-1 colon cancer cell line is prepared as a tissue fragment sentinel. DLD-1 cell lines are cultured for 24 hours and form a spheroid shape after incubation. Spheroids are immobilized within two hours by poly-D-lysine after placing spheroids on a bottom of plate.\nTo obtain infection spectra, bacteria in a pellet form can be re-suspended by diluting a pellet with various media (5% NaCl, growth medium, PBS etc.). The diluting process produces a uniform concentration of bacteria, and the bacterial concentration can be controlled by controlling volumes of media.\nas §2\nOne of the most important applications of the tissue sentinels is to serve as a dynamic substrate for the study of antibiotic sensitivity and resistance. […]"}}, "data": [{"molecule": "O=C(O)c1cn(C2CC2)c2cc(N3CCNCC3)c(F)cc2c1=O", "note": "[Cipro, Ciprofloxacin]", "values": [{"measurement": "response of highest frequencies to Cipro", "setting": "[1]; short-time response within 30 minutes of dose", "result": "not affected"}, {"measurement": "response of highest frequencies to Cipro", "setting": "[2]", "result": "not affected"}, {"measurement": "response of highest frequencies to Cipro", "setting": "[3]", "result": "not affected"}]}, {"molecule": "[Na+].[OH-]", "note": "[NaOH]", "values": [{"measurement": "spectrogram response of E. coli pellet to chemical agent", "setting": "[1]; FIG. 10", "result": "broad inhibition of activity"}, {"measurement": "low frequency response after adding chemical agents", "setting": "[1]; FIG. 10 legend", "result": "highly suppressed"}]}, {"molecule": "CCO", "note": "[ethanol]", "values": [{"measurement": "response of highest frequency", "setting": "[1]; 70% ethanol", "result": "relatively unaffected"}]}, {"molecule": "CC1(C)S[C@@H]2[C@H](NC(=O)Cc3ccccc3)C(=O)N2[C@H]1C(=O)O", "note": "[penicillin, penicillin G]", "values": [{"measurement": "time after antibiotic at which weak infection signal emerges", "setting": "[4]; L. mono, penicillin alone", "result": "about 8 hours"}, {"measurement": "inhibition of L. mono strain by antibiotic", "setting": "[4]; penicillin alone without streptomycin, FIG. 22", "result": "not completely inhibited"}]}]}
